Reference: US7101888B2, “Oral liquid tolterodine composition” (Pharmacia & UpJohn Company, priority 2002, dated 2006)

What was measured:
[1] = Chemical stability of tolterodine in aqueous media; assay type: physicochemical
[2] = system: muscarinic receptors of the salivary gland; settings: compared with oxybutynin; cited from earlier work

In the case of Cc1ccc(O)c([C@H](CCN(C(C)C)C(C)C)c2ccccc2)c1 [tolterodine, (R)-N,N-diisopropyl-3-(2-hydroxy-5-methylphenyl)-3-phenylpropanamine], the “stability in aqueous solutions of tolterodine salts” value ([1]; alkaline pH) is reported as “unstable”, the “pH of optimum stability” value ([1]; aqueous solutions of tolterodine salts) is reported as “about 4” and the “chemical stability in aqueous media” value ([1]; neutral to alkaline pH levels) is reported as “chemical instability”. The “affinity for the muscarinic receptors of the salivary gland relative to oxybutynin” value [2] was “about eight times lower”.
